# Data from patent publication US20190256994A1, “Electrochemical Deposition of Elements in Aqueous Media” (LumiShield Technologies Incorporated, priority 2016, published 2019).
# Conditions: acid of the ligand; cited from earlier work
row,Molecule,pKa in water
1,"O=S(=O)(O)C(F)(F)F [Triflate (TfO), Triflate]",-3.43
2,Methanesulfonate [Methanesulfonate (MSO)],-1.61
3,p-Toluenesulfonate [p-Toluenesulfonate (p-TSA)],-2.14
4,"O=S(=O)(NS(=O)(=O)C(F)(F)F)C(F)(F)F [bis(trifluoromethane) sulfonamide(Tf2N), bis(trifluoromethane) sulfonamide]",Too negative to measure
5,Trifluoroacetate [Trifluoroacetate (TFA)],0.52

# Type: physicochemical
# Conditions: 1 M aluminum aqueous solution
row,Molecule,pH
1,"[Cl][Al]([Cl])[Cl] [AlCl3, Aluminum chloride]",2.04
